{"source": "patent US11793782B2", "about": "“Therapeutic agents for neurodegenerative diseases” (priority 2017, dated 2023)", "system": "ataxia telangiectasia patients", "assay": "Case studies, ataxia telangiectasia patients (SARA, SCAFI, video-oculography)", "assay_type": "in vivo, human", "settings": "for 8MWT: baseline 8.95 sec; for PATA: baseline 14.5; for 9HPTND: baseline 71.2 sec; for 9HPTD: baseline 85.38 sec", "from_the_text": "For example, to evaluate overall neurological status, mDRS, a four-domain scale (ambulation, manipulation, language and swallowing), may be applied. Cerebellar function may be evaluated using SARA, an eight-item clinical rating scale (gait, stance, sitting, speech, fine motor function and taxis; range 0-40, where 0 is the best neurological status and 40 the worst), and SCAFI, comprising the 8-m-Walking-Time (8 MW; performed by having patients walking twice as quickly as possible from one line to another excluding turning), 9-Hole-Peg-Test (9HPT) and the number of “PATA” repetitions over 10 s. Subjective impairment and quality of life may be evaluated using the EQ-5D-5L questionnaire and VAS. To assess ocular motor function, 3-dimensional videooculography (EyeSeeCam) may be used to measure the peak velocity of saccades, gain of smooth pursuit, peak slow phase velocity of gaze-evoked nystagmus (gaze-holding function), peak slow phase velocity of optokinetic nystagmus, and gain of horizontal vestibulo-ocular reflex. To evaluate the cognitive state, WAIS-R or WISC-IV, and MoCA, assessing different cognitive domains, including attention and concentration, executive functions, memory, language, visuoconstructional skills, conceptual thinking, calculations, and orientation with a maximum of 30 points and a cut-off score of 26, may be used. The skilled person will know how to perform these and other such tests.\nAfter one month of treatment, the patient was re-evaluated. […] Examination indicated a Scale for Assessment and Rating of Ataxia (SARA) score of 15.5/40. Results from the patient's Spinocerebellar Ataxia Functional Index (SCAFI) analysis were: • Mean 8-meters Walking Test (8 MW): 18.5 s • MW 9-Hole Pegboard Test Dominant (9HPTD) (right): 77.9 s • MW 9-Hole Pegboard Test Non-Dominant (9HPTND): 101.3 s • MW PATA Word Test: 13 • Visual analog scale (as evaluated by the patient): 85\nAfter one month of treatment, the patient was re-evaluated. […] Examination indicated a Scale for Assessment and Rating of Ataxia (SARA) score of 23.5/40.\nAfter slightly over 7 months of treatment, the patient was re-evaluated. […] Examination indicated a Scale for Assessment and Rating of Ataxia (SARA) score of 21.5/40.\nAfter slightly over 1 month of treatment, the patient was re-evaluated. […] The patient also reported that drinking was easier and no longer needed a straw. […] Examination indicated a Scale for Assessment and Rating of Ataxia (SARA) score of 18.5/40.\nAfter about 1 month of treatment, the patient was re-evaluated. […] On medication, they were able to walk with only holding the caregiver's hand.\nThe patient was evaluated after one month and six months of treatment, respectively. […] The patient, however, was suffering from anxiety, which would be expected to negatively influence the response.", "key": {"[1]": {"settings": "ataxia telangiectasia Patient 4, after slightly over 1 month, Center"}, "[2]": {"settings": "ataxia telangiectasia Patient 4, after slightly over 1 month, Down"}, "[3]": {"settings": "ataxia telangiectasia Patient 4, after slightly over 1 month, Left"}, "[4]": {"settings": "ataxia telangiectasia Patient 4, after slightly over 1 month, Right"}, "[5]": {"settings": "ataxia telangiectasia Patient 5, after about 1 month"}, "[6]": {"settings": "ataxia telangiectasia Patient 5, after about 1 month, Center"}, "[7]": {"settings": "ataxia telangiectasia Patient 5, after about 1 month, Down"}, "[8]": {"settings": "ataxia telangiectasia Patient 5, after about 1 month, Left"}, "[9]": {"settings": "ataxia telangiectasia Patient 5, after about 1 month, Right"}, "[10]": {"settings": "ataxia telangiectasia Patient 5, after about 1 month, Up"}, "[11]": {"settings": "ataxia telangiectasia Patient 5, after almost 7 months"}, "[12]": {"settings": "ataxia telangiectasia Patient 5, after slightly over a year"}, "[13]": {"settings": "ataxia telangiectasia Patient 6, after one month"}, "[14]": {"settings": "ataxia telangiectasia Patient 6, after six months"}}}
{"molecule": "CC(=O)NC(CC(C)C)C(=O)O", "note": "(racemic) [acetyl-DL-leucine]", "values": [{"measurement": "Slow phase velocity of the gaze-holding nystagmus, Horizontal", "setting": "[1]", "result": "−0.2", "unit": "°/s"}, {"measurement": "Slow phase velocity of the gaze-holding nystagmus, Vertical", "setting": "[1]", "result": 4.8, "unit": "°/s"}, {"measurement": "Slow phase velocity of the gaze-holding nystagmus, Horizontal", "setting": "[2]", "result": "−0.7", "unit": "°/s"}, {"measurement": "Slow phase velocity of the gaze-holding nystagmus, Vertical", "setting": "[2]", "result": "−2.3", "unit": "°/s"}, {"measurement": "Slow phase velocity of the gaze-holding nystagmus, Horizontal", "setting": "[3]", "result": "−0.8", "unit": "°/s"}, {"measurement": "Slow phase velocity of the gaze-holding nystagmus, Vertical", "setting": "[3]", "result": 1.9, "unit": "°/s"}, {"measurement": "Slow phase velocity of the gaze-holding nystagmus, Horizontal", "setting": "[4]", "result": "−1", "unit": "°/s"}, {"measurement": "Slow phase velocity of the gaze-holding nystagmus, Vertical", "setting": "[4]", "result": 0.3, "unit": "°/s"}, {"measurement": "PATA Word Test", "setting": "ataxia telangiectasia Patient 4, after slightly over 1 month, before 14", "result": 15.5}, {"measurement": "9-Hole Pegboard Test Non-Dominant (9HPTND)", "setting": "ataxia telangiectasia Patient 4, after slightly over 1 month, before 52.3 s", "result": 101.7, "unit": "s"}, {"measurement": "Visual analog scale (as evaluated by the patient)", "setting": "ataxia telangiectasia Patient 4, after slightly over 1 month, before 70", "result": 70}, {"measurement": "9-Hole Pegboard Test Dominant (9HPTD) (right)", "setting": "ataxia telangiectasia Patient 4, after slightly over 1 month, before 124.5 s", "result": 93.5, "unit": "s"}, {"measurement": "Mother's report", "setting": "ataxia telangiectasia Patient 5, 5 g/day, after about 1 month", "result": "significant improvement of stability of the gait"}, {"measurement": "Mean 8-meters Walking Test (8 MW)", "setting": "[5]", "result": "not able to walk without support"}, {"measurement": "Weight gained", "setting": "[5]", "result": 1.5, "unit": "kg"}, {"measurement": "Slow-phase velocity (SPV) of fixation and gaze-holding nystagmus, Horizontal", "setting": "[6]", "result": 0.79, "unit": "°/s"}, {"measurement": "Slow-phase velocity (SPV) of fixation and gaze-holding nystagmus, Vertical", "setting": "[6]", "result": 3.54, "unit": "°/s"}, {"measurement": "Slow-phase velocity (SPV) of fixation and gaze-holding nystagmus, Horizontal", "setting": "[7]", "result": 0.62, "unit": "°/s"}, {"measurement": "Slow-phase velocity (SPV) of fixation and gaze-holding nystagmus, Vertical", "setting": "[7]", "result": 1.08, "unit": "°/s"}, {"measurement": "Slow-phase velocity (SPV) of fixation and gaze-holding nystagmus, Horizontal", "setting": "[8]", "result": 1.22, "unit": "°/s"}, {"measurement": "Slow-phase velocity (SPV) of fixation and gaze-holding nystagmus, Vertical", "setting": "[8]", "result": 2.53, "unit": "°/s"}, {"measurement": "Slow-phase velocity (SPV) of fixation and gaze-holding nystagmus, Horizontal", "setting": "[9]", "result": 1.17, "unit": "°/s"}, {"measurement": "Slow-phase velocity (SPV) of fixation and gaze-holding nystagmus, Vertical", "setting": "[9]", "result": 2.36, "unit": "°/s"}, {"measurement": "Slow-phase velocity (SPV) of fixation and gaze-holding nystagmus, Horizontal", "setting": "[10]", "result": 0.33, "unit": "°/s"}, {"measurement": "Slow-phase velocity (SPV) of fixation and gaze-holding nystagmus, Vertical", "setting": "[10]", "result": 1.71, "unit": "°/s"}, {"measurement": "PATA Word Test", "setting": "ataxia telangiectasia Patient 5, after about 1 month, before 6", "result": 7.5}, {"measurement": "Visual analog scale (as evaluated by the patient)", "setting": "ataxia telangiectasia Patient 5, after about 1 month, before 90", "result": 80}, {"measurement": "9-Hole Pegboard Test Dominant (9HPTD) (right)", "setting": "ataxia telangiectasia Patient 5, after about 1 month, before 102.7 s", "result": 103.6, "unit": "s"}, {"measurement": "9-Hole Pegboard Test Non-Dominant (9HPTND)", "setting": "ataxia telangiectasia Patient 5, after about 1 month, before 116.8 s", "result": 88.8, "unit": "s"}, {"measurement": "9-Hole Pegboard Test Dominant (9HPTD) (right)", "setting": "[11]", "result": 92.4, "unit": "s"}, {"measurement": "9-Hole Pegboard Test Non-Dominant (9HPTND)", "setting": "[11]", "result": 98.3, "unit": "s"}, {"measurement": "Further weight gained", "setting": "[11]", "result": 3, "unit": "kg"}, {"measurement": "Mother's report", "setting": "[11]", "result": "significantly more stable gait"}, {"measurement": "PATA Word Test", "setting": "[11]", "result": 11}, {"measurement": "Visual analog scale (as evaluated by the patient)", "setting": "[11]", "result": 100}, {"measurement": "Mean 8-meters Walking Test (8 MW)", "setting": "ataxia telangiectasia Patient 5, after almost 7 months, holding of the hand", "result": 15.3, "unit": "s"}, {"measurement": "9-Hole Pegboard Test Dominant (9HPTD) (right)", "setting": "[12]", "result": 95.6, "unit": "s"}, {"measurement": "9-Hole Pegboard Test Non-Dominant (9HPTND)", "setting": "[12]", "result": 127.6, "unit": "s"}, {"measurement": "Clinical observation", "setting": "[12]", "result": "improved social interaction, activity, and agility"}, {"measurement": "PATA Word Test", "setting": "[12]", "result": 14.5}, {"measurement": "Visual analog scale (as evaluated by the patient)", "setting": "[12]", "result": 95}, {"measurement": "Mean 8-meters Walking Test (8 MW)", "setting": "ataxia telangiectasia Patient 5, after slightly over a year, able to walk by themself, parent held hand", "result": 13.9, "unit": "s"}, {"measurement": "Adverse observation", "setting": "ataxia telangiectasia Patient 5, after slightly over a year, suspected infantile migraine", "result": "repeatedly occuring frontal localized pain with vomiting in the morning"}, {"measurement": "Clinical observation", "setting": "[13]", "result": "increased fine motor skills with reduced hand tremor, improved postural stability and gait, increased enunciation, and increased self-confidence"}, {"measurement": "8MWT", "setting": "[13]", "result": 8.45, "unit": "s"}, {"measurement": "PATA", "setting": "[13]", "result": 15.5}, {"measurement": "9HPTND", "setting": "[13]", "result": 70.39, "unit": "s"}, {"measurement": "9HPTD", "setting": "[13]", "result": 81.95, "unit": "s"}, {"measurement": "Clinical observation", "setting": "[14]", "result": "stable general conditions, stable gait and stance, and improved handwriting"}, {"measurement": "8MWT", "setting": "[14]", "result": 7.53, "unit": "s"}, {"measurement": "SARA", "setting": "ataxia telangiectasia Patient 6, after six months, baseline 11/40", "result": "11/40"}, {"measurement": "PATA", "setting": "[14]", "result": 13}, {"measurement": "9HPTND", "setting": "[14]", "result": 80.32, "unit": "s"}, {"measurement": "9HPTD", "setting": "[14]", "result": 136.27, "unit": "s"}]}
